Converted amounts (≈) assume the structure as drawn. Where two headings read alike, the source gives them in different places.
Tests used:
[1] = tested on: KP: Klebisiella pneumoniae ATCC 10031; assay: Antimicrobial activity by the agar dilution method (MIC); assay type: cell-based
Experimental: (§1) Antimicrobial activity was determined by the agar dilution method using a culture medium (pH 7) prepared by dissolving 3 g of Bacto-Tryptone (manufactured by Difco, Co.), 3 g of meat extract, 1 g of yeast extract, 1 g of glucose, and 16 g of agar in 1 l of water.

[2] = tested on: EC: Escherichia coli ATCC 26; assay: as above; assay type: cell-based
Experimental: as §1

[3] = tested on: BS: Bacillus substilis No. 10707; assay: as above; assay type: cell-based
Experimental: as §1

[4] = tested on: EH: Enterococcus hirae ATCC 10541; assay: as above; assay type: cell-based; conditions: pH 7
Experimental: as §1

[5] = tested on: SA: Staphylococcus aureus ATCC 6538P; assay: as above; assay type: cell-based; conditions: ATCC6538P
Experimental: as §1

HeLa S3 cells = assay: HeLa S3 Cell Growth Inhibition Test; assay type: cell-based; conditions: Homo sapiens, 72 hours incubation, Neutral Red
Procedure, shortened: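 HeLa S3 cells seeded overnight in MEM with 10% FBS, then exposed to compound for 72 h at 37 °C. Viable cells stained with Neutral Red, dye extracted, absorbance read at 550 nm; IC50 derived against untreated cells.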

[6] = tested on: Sarcoma 180 mouse solid tumor; assay: Antitumor activity against Sarcoma 180 mouse solid tumor; assay type: in vivo, mouse (ddY); conditions: Sarcoma-180, iv, 168 h
Experimental: To a ddY mouse were intraperitoneally transplanted 5×10^6 sarcoma 180 cells. On the seventh day from the transplant, the cells were collected from the ascites, washed once with sterilized physiological saline, and then diluted with sterilized physiological saline to prepare a cell suspension having a concentration of 5×10^7 cells/mL. This suspension was transplanted in an amount of 0.01 mL to a subcutaneous part of the right axilla of each of male ddY mice each weighing 20±1 g.
A test compound was dissolved in physiological saline containing polyoxyethylene sorbitan monolaurate. At 24 hours after the tumor transplant, 0.2 mL of the solution was intravenously administered to the tail of each of a group of five mice.

tumor = conditions: Japanese Published Unexamined Patent Application No. 112988/89; cited from earlier work
various bacteria = conditions: Japanese Published Unexamined Patent Application No. 112988/89; cited from earlier work
[7] = Klebisiella pneumoniae ATCC 10031, agar dilution, pH 7, read-out: minimum inhibitory concentration (MIC), KP
[8] = ATCC26, Escherichia coli ATCC 26, agar dilution, pH 7, read-out: minimum inhibitory concentration (MIC), EC
[9] = Bacillus substilis No. 10707, agar dilution, pH 7, read-out: minimum inhibitory concentration (MIC), BS
[10] = Staphylococcus aureus ATCC 6538P, agar dilution, pH 7, read-out: minimum inhibitory concentration (MIC), SA
[11] = HeLa S3, 72 h, HeLa S3, read-out: IC50, HeLa S3 cell growth inhibition
[12] = pH 7, read-out: minimum inhibitory concentration (MIC), KP
[13] = Bacillus, pH 7, read-out: minimum inhibitory concentration (MIC), BS
[14] = read-out: T/C (tumor volume ratio treated/control)
[15] = Staphylococcus aureus, pH 7, read-out: minimum inhibitory concentration (MIC), SA
[16] = HeLa S3, 72 h, read-out: IC50, HeLa S3 cell growth inhibition, HeLa S3
[17] = Escherichia coli, ATCC26, pH 7, read-out: minimum inhibitory concentration (MIC), EC
[18] = 16 mg/kg i.v. once, 24 hours after transplant, tumor volume on day 7, read-out: T/C (tumor volume ratio treated/control)
[19] = HeLa S3, read-out: IC50, HeLa S3 cell growth inhibition

Compound | MIC [1, 7] | MIC [3, 9] | minimum inhibitory concentration (MIC), EH [4] | MIC [5, 10] | MIC [1, 12] | MIC [3, 13] | MIC [5, 15] | further results
COC(=O)NCC(=O)OCSC(=O)C(C)(O)C12CCC(C)=CC(O)C(=O)C=CC=Cc3csc(n3)C(C)N(C(=O)C1)[S+]2[O-] (stereo not drawn) [Compound 17] | 0.65 µg/mL (≈ 0.991 µM) | 0.65 µg/mL (≈ 0.991 µM) | 1.3 µg/mL (≈ 1.98 µM) | 0.65 µg/mL (≈ 0.991 µM) | – | – | – | MIC [2, 8]: 42 µg/mL (≈ 64 µM); IC50 (HeLa S3 cells; [11]): 15 nM
COC(=O)NCC(=O)OCOC1C=C(C)CCC2(C(C)(O)C(=O)SCOC(=O)CNC(=O)OC)CC(=O)N(C(C)c3nc(cs3)C=CC=CC1=O)[S+]2[O-] (stereo not drawn) [Compound 18] | 2.9 µg/mL (≈ 3.62 µM) | 11 µg/mL (≈ 13.7 µM) | 5.7 µg/mL (≈ 7.12 µM) | 11 µg/mL (≈ 13.7 µM) | – | – | – | response vs control in vivo at 4 mg/kg ([6]; 4.0 mg/kg i.v. once, 24 hours after transplant, tumor volume on day 7, read-out: T/C (tumor volume ratio treated/control)): 38%; IC50 (HeLa S3 cells; [11]): 150 nM
COC(=O)[C@H](CCC(=O)OCSC(=O)C(C)(O)C12CCC(C)=CC(O)C(=O)C=CC=Cc3csc(n3)C(C)N(C(=O)C1)[S+]2[O-])NC(=O)[C@@]12O[C@H]3COC(C)(C)O[C@H]3[C@@H]1OC(C)(C)O2 (stereo partly drawn) [Compound 24] | – | – | 23 µg/mL (≈ 24.5 µM) | – | 46 µg/mL (≈ 48.9 µM) | 23 µg/mL (≈ 24.5 µM) | 23 µg/mL (≈ 24.5 µM) | response vs control in vivo at 16 mg/kg [6, 14]: 12%; IC50 (HeLa S3 cells; [16]): 550 nM
COCCOCCOCC(=O)OCSC(=O)C(C)(O)C12CCC(C)=CC(O)C(=O)C=CC=Cc3csc(n3)C(C)N(C(=O)C1)[S+]2[O-] (stereo not drawn) [Compound 35] | 0.39 µg/mL (≈ 0.556 µM) | 0.39 µg/mL (≈ 0.556 µM) | 0.39 µg/mL (≈ 0.556 µM) | 0.39 µg/mL (≈ 0.556 µM) | – | – | – | MIC [2, 8]: 13 µg/mL (≈ 18.5 µM); response vs control in vivo at 2 mg/kg ([6]; 2.0 mg/kg i.v. once, 24 hours after transplant, tumor volume on day 7, read-out: T/C (tumor volume ratio treated/control)): 44%; IC50 (HeLa S3 cells; [11]): 22 nM
COC(=O)[C@H](CCC(=O)OCSC(=O)C(C)(O)C12CC/C(C)=C/C(O)C(=O)/C=C/C=C\c3csc(n3)C(C)N(C(=O)C1)[S+]2[O-])NC(=O)[C@@]12O[C@@H](CO)[C@@H](O)[C@@H]1OC(C)(C)O2 (stereo partly drawn) [Compound 60] | – | – | 7.3 µg/mL (≈ 8.11 µM) | – | 15 µg/mL (≈ 16.7 µM) | 15 µg/mL (≈ 16.7 µM) | 15 µg/mL (≈ 16.7 µM) | response vs control in vivo at 8 mg/kg [6, 14]: 31%; IC50 (HeLa S3 cells; [16]): 550 nM
C/C1=C\C(O)C(=O)/C=C/C=C\c2csc(n2)C(C)N2C(=O)CC(C(C)(O)C(=O)SCOC(=O)CCc3ccc(O)cc3)(CC1)[S+]2[O-] (stereo not drawn) [Compound 70] | – | – | 0.91 µg/mL (≈ 1.32 µM) | – | 0.91 µg/mL (≈ 1.32 µM) | 0.057 µg/mL (≈ 0.0827 µM) | 0.91 µg/mL (≈ 1.32 µM) | MIC [2, 17]: 29 µg/mL (≈ 42.1 µM); IC50 (HeLa S3 cells; [16]): 2.6 nM
COCOCc1oc(=O)oc1CSC(=O)C(C)(O)C12CC/C(C)=C/C(O)C(=O)/C=C/C=C\c3csc(n3)C(C)N(C(=O)C1)[S+]2[O-] (stereo not drawn) [Compound 77] | 0.36 µg/mL (≈ 0.527 µM) | 0.36 µg/mL (≈ 0.527 µM) | 0.18 µg/mL (≈ 0.264 µM) | 0.36 µg/mL (≈ 0.527 µM) | – | – | – | MIC [2, 8]: 11 µg/mL (≈ 16.1 µM); response vs control in vivo at 8 mg/kg ([6]; 8.0 mg/kg i.v. once, 24 hours after transplant, tumor volume on day 7, read-out: T/C (tumor volume ratio treated/control)): 36%; IC50 (HeLa S3 cells; [11]): 7.7 nM
C/C1=C\C(OC2CCCCO2)C(=O)/C=C/C=C\c2csc(n2)C(C)N2C(=O)CC(C(C)(O)C(=O)SCc3oc(=O)oc3COC3C[C@H](O[Si](C)(C)C(C)(C)C)[C@@H](O[Si](C)(C)C(C)(C)C)[C@H](C)O3)(CC1)[S+]2[O-] (stereo partly drawn) [Compound 80] | 27 µg/mL (≈ 25 µM) | 0.42 µg/mL (≈ 0.388 µM) | 3.4 µg/mL (≈ 3.14 µM) | 3.4 µg/mL (≈ 3.14 µM) | – | – | – | response vs control in vivo at 16 mg/kg [6, 18]: 37%; IC50 (HeLa S3 cells; [19]): 330 nM
CC[Si](CC)(CC)OC[C@H]1OC(OCc2oc(=O)oc2CSC(=O)C(C)(O)C23CC/C(C)=C/C(OC4CCCCO4)C(=O)/C=C/C=C\c4csc(n4)C(C)N(C(=O)C2)[S+]3[O-])C[C@@H](O[Si](CC)(CC)CC)[C@@H]1O[Si](CC)(CC)CC (stereo partly drawn) [Compound 82] | 33 µg/mL (≈ 27.2 µM) | – | 4.2 µg/mL (≈ 3.47 µM) | 2.1 µg/mL (≈ 1.73 µM) | – | – | – | response vs control in vivo at 16 mg/kg [6, 18]: 36%; IC50 (HeLa S3 cells; [19]): 800 nM
C/C1=C\C(OC2CCCCO2)C(=O)/C=C/C=C\c2csc(n2)C(C)N2C(=O)CC(C(C)(O)C(=O)SCc3oc(=O)oc3COC3C[C@@H](O)[C@H](O)[C@@H](CO)O3)(CC1)[S+]2[O-] (stereo partly drawn) [Compound 83] | – | – | 0.59 µg/mL (≈ 0.679 µM) | – | 4.7 µg/mL (≈ 5.41 µM) | 0.037 µg/mL (≈ 0.0426 µM) | 0.32 µg/mL (≈ 0.368 µM) | MIC [2, 17]: 4.7 µg/mL (≈ 5.41 µM); IC50 (HeLa S3 cells; [16]): 11 nM
C/C1=C\C(O)C(=O)/C=C/C=C\c2csc(n2)C(C)N2C(=O)CC(C(C)(O)C(=O)SCc3oc(=O)oc3CO)(CC1)[S+]2[O-] (stereo not drawn) [Compound 86] | – | – | 0.16 µg/mL (≈ 0.25 µM) | – | 0.16 µg/mL (≈ 0.25 µM) | 0.16 µg/mL (≈ 0.25 µM) | 0.33 µg/mL (≈ 0.517 µM) | MIC [2, 17]: 10 µg/mL (≈ 15.7 µM); IC50 (HeLa S3 cells; [16]): 610 nM
COCCOCC(=O)OCc1oc(=O)oc1CSC(=O)C(C)(O)C12CC/C(C)=C/C(OC3CCCCO3)C(=O)/C=C/C=C\c3csc(n3)C(C)N(C(=O)C1)[S+]2[O-] (stereo not drawn) [Compound 100] | 0.65 µg/mL (≈ 0.775 µM) | 0.041 µg/mL (≈ 0.0489 µM) | 0.33 µg/mL (≈ 0.393 µM) | 0.081 µg/mL (≈ 0.0965 µM) | – | – | – | MIC [2, 8]: 2.6 µg/mL (≈ 3.1 µM); response vs control in vivo at 16 mg/kg [6, 18]: 30%; IC50 (HeLa S3 cells; [11]): 18 nM
C/C1=C\C(O)C(=O)/C=C/C=C\c2csc(n2)C(C)N2C(=O)CC(C(C)(O)C(=O)SCOC(=O)CCCNC(=O)C(C)(CO)CO)(CC1)[S+]2[O-] (stereo not drawn) [Compound 139] | – | – | 12 µg/mL (≈ 16.2 µM) | – | 25 µg/mL (≈ 33.7 µM) | 12 µg/mL (≈ 16.2 µM) | 25 µg/mL (≈ 33.7 µM) | response vs control in vivo at 4 mg/kg [6, 14]: 33%
COC(=O)[C@H](CCC(=O)OCSC(=O)C(C)(O)C12CC/C(C)=C/C(O)C(=O)/C=C/C=C\c3csc(n3)C(C)N(C(=O)C1)[S+]2[O-])NC(=O)C1CCC(=O)N1 (stereo partly drawn) [Compound 143] | – | – | 0.29 µg/mL (≈ 0.365 µM) | – | 0.59 µg/mL (≈ 0.742 µM) | 0.29 µg/mL (≈ 0.365 µM) | 0.29 µg/mL (≈ 0.365 µM) | MIC [2, 17]: 19 µg/mL (≈ 23.9 µM); response vs control in vivo at 8 mg/kg [6, 14]: 27%
C/C1=C\C(O)C(=O)/C=C/C=C\c2csc(n2)C(C)N2C(=O)CC(C(C)(O)C(=O)SCOC(=O)CCCNC(=O)[C@@H]3CCC(=O)N3)(CC1)[S+]2[O-] (stereo partly drawn) [Compound 144] | – | – | 5.8 µg/mL (≈ 7.87 µM) | – | 12 µg/mL (≈ 16.3 µM) | 12 µg/mL (≈ 16.3 µM) | 12 µg/mL (≈ 16.3 µM) | response vs control in vivo at 8 mg/kg [6, 14]: 26%
C/C1=C\C(O)C(=O)/C=C/C=C\c2csc(n2)C(C)N2C(=O)CC(C(C)(O)C(=O)SCOC(=O)CCCN3CCCC3=O)(CC1)[S+]2[O-] (stereo not drawn) [Compound 145] | – | – | 7.7 µg/mL (≈ 11.1 µM) | – | 7.7 µg/mL (≈ 11.1 µM) | 7.7 µg/mL (≈ 11.1 µM) | 15 µg/mL (≈ 21.6 µM) | response vs control in vivo at 4 mg/kg [6, 14]: 23%
C/C1=C\C(O)C(=O)/C=C/C=C\c2csc(n2)C(C)N2C(=O)CC(C(C)(O)C(=O)SCc3oc(=O)oc3COC(=O)CN(C)C)(CC1)[S+]2[O-] (stereo not drawn) [Compound 158] | – | – | 0.33 µg/mL (≈ 0.456 µM) | – | 1.3 µg/mL (≈ 1.8 µM) | < 0.041 µg/mL | 0.33 µg/mL (≈ 0.456 µM) | response vs control in vivo at 32 mg/kg [6, 14]: 31%
CC1=CC(O)C(=O)C=CC=Cc2csc(n2)C(C)NC(=O)CC2(CC1)[S+]([O-])SC(=O)C2(C)O (stereo not drawn) [DC107] | – | – | – | – | – | – | – | antitumor activity (tumor): antitumor activity; antimicrobial activity (various bacteria): antimicrobial activity against various bacteria

From patent US5981558A, “DC107 derivatives” (Kyowa Hakko Kogyo Co., Ltd., priority 1996, dated 1999)
